Earlier results as cited in US10172867B2, “Afobazole nanoparticles formulation for enhanced therapeutics” (University of South Florida, priority 2014, dated 2019).

Columns and labels:
in vitro ischemia model = details: Cuevas et al.
σ-1 receptor = details: Cuevas et al., 2011
σ-2 receptor = σ-2 receptor (Homo sapiens, UniProt Q5BJF2); details: Cuevas et al., 2011
[1] = in vivo
muscarinic receptors = details: Seredenin et al., 2009

Sequence of σ-2 receptor (Q5BJF2 whole entry, species assumed): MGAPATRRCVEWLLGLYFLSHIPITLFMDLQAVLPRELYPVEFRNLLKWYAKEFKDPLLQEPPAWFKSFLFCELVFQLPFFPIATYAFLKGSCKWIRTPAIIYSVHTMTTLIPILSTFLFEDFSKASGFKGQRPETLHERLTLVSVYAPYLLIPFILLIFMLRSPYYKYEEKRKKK

σ-1 receptor activity (σ-1 receptor): agonist
σ-2 receptor activity (σ-2 receptor): agonist
brain penetration [1]: limited brain penetration
half-life [1]: short half-life
interaction with muscarinic receptors (muscarinic receptors): does not interact
SMILES: CCOc1ccc2nc(SCCN3CCOCC3)[nH]c2c1 [Afobazole, 5-ethoxy-2[2-(morpholine)-ethylthio]benzimidazole]
neuroprotection (in vitro ischemia model; in vitro ischemia model, 2011): provides neuroprotection
ischemia-induced Ca2+ overload (in vitro ischemia model; via activation of σ-1 receptors, Katnik et al., 2006, 2011a): decrease in ischemia-induced Ca^2+ overload
